The test system of data set [1] is hydantoinase. Description: Metal ion requirements of purified hydantoinase. The format is biochemical, Ochrobactrum anthropi. Details: Specific activity: unit not given here. The settings on record: hydantoin as substrate, metal ion at 100 mM concentration. As for the experimental part: Purified hydantoinase was assayed with hydantoin with the addition of the various metal ions at 100 mM concentration.

Data set [2] has as its system hydantoinase. Briefly: Substrate specificity of purified recombinant hydantoinase. In kind it is biochemical, Ochrobactrum anthropi. The settings on record: purified recombinant enzyme from E. coli BL21, compound as substrate. The procedure:
E. coli BL21 containing the hydantoinase gene was grown as described in example 4.2. The cells were centrifuged and washed with 100 mM carbonate buffer pH 9.0 and resuspended in the same buffer and ruptured by sonication. The enzyme was purified as described in example 2. The purified enzyme was tested for substrate specificity with various hydantoins as substrate.

Data set [3] has as its system hydantoinase. Description: Effect of glutaraldehyde and acetone treatment of whole cells on hydantoinase activity. The settings on record: treated whole cells; 10 mg/ml D,L-p-hydroxyphenyl hydantoin, pH 8.5, 42° C., 4 hours; Control (buffer only) = 1. In kind it is biochemical, Ochrobactrum anthropi. The procedure:
Washed cell suspension 0.5 ml aliquots of culture was treated with 0.5 ml glutaraldehyde (G.A.) final concentration 2% in phosphate buffer pH 7.0, or with 0.5 ml G.A. 2% in phosphate buffer and 1 ml acetone, or with 0.5 ml acetone alone at room temperature for 10 minutes. The treated cells were washed with 10 ml 0.9% saline and then with saline +1 mg/ml ammonium sulfate and resuspended in 1 ml 100 mM TAPS buffer pH 8.5. Resuspended cell suspensions were incubated with 10 mg/ml D,L-p-hydroxyphenyl hydantoin in 100 mM TAPS pH 8.5 (final volume 800 μl) at 42° C. for 4 hours. Reactions were terminated with 200 μl TCA 12% and assayed.

Data set [4] has as its system hydantoinase. Briefly: Effect of substrate concentration on rate of conversion by glutaraldehyde treated cells. The format is biochemical, Ochrobactrum anthropi. The settings on record: pH 8.8, 42° C.; for % Conversion: 6 hours.
Description: Incubations were in 200 mM TAPS pH 8.8, 42° C. for 6 hours, and pH adjustments were made back to normal at least every hour.
Data set [5] can be described thus: PI value of hydantoinase by IEF-PAGE. The settings on record: IEF-PAGE gel, pH range of 3-9. The format is physicochemical, Ochrobactrum anthropi. As for the experimental part:
Active band eluant from preparative native gel was run on the Phast System IEF-PAGE gel with a pH range of 3-9 using low MW protein markers and the gel was silver stained. PI of active band protein was determined at approximately 4.5.

Data set [6] in a line: Specific activity of purified hydantoinase. In kind it is biochemical, Ochrobactrum anthropi. The settings on record: active band eluant from preparative native gel. As for the experimental part:
Active band eluant from preparative native gel was assayed and protein determined by Pierce Microtiter assay protocol using BSA standard. Specific activity was determined at greater than 4 IU per mg of protein.

The nature of data set [7]: Stability of enzyme at pH 8.8, 9.3 and 9.8. The format is biochemical, Ochrobactrum anthropi. The settings on record: then assayed at pH 8.8, 42° C. As for the experimental part:
Glutaraldehyde treated cells from pH profile study were held at pH 8.8, 9.3 and 9.8 for about 4 hours. Solids were washed, resuspended in 25 mM TAPS pH 8.8 and 10 mg/ml D,L-p-hydroxyphenyl hydantoin and incubated at 42° C. for 4 hours. […] Optimum pH of activity at 8.8 in pH profile study was probably due to greater enzyme stability at pH 8.8 rather than pH 9.3 or 9.8.

Consider 21 molecules from patent publication US6800465B2, “D-hydantoinase from Ochrobactrum anthropi” (priority 2001, dated 2004).

As for `[Fe+2]` [Fe (II)], in data set [1], the Specific activity worked out at 9.3 and the “effect on the activity of the enzyme” value was “stimulate the activity”.

Regarding `[Zn+2]` [Zn (II)], the Specific activity in data set [1] amounted to 1.8.

For `O=C(O)CN(CCN(CC(=O)O)CC(=O)O)CC(=O)O` [None (EDTA)], the Specific activity in data set [1] is recorded as 4.8.

Turning to `[Mn+2]` [Mn (II)], in data set [1], the Specific activity is 7.1 and the “effect on the activity of the enzyme” value was “stimulate the activity”.

For Hydroxymethyl 5,5-dimethyl hydantoin, in data set [2], the “Specific activity” value turned out to be 5.6 IU/mg.

With `O=C(O)CC1NC(=O)NC1=O` (centres unmarked) [D,L hydantoin 5-acetic acid], in data set [2], the “Specific activity” value amounted to 1.8 IU/mg.

`[Cu+2]` [Cu (II)] registered a Specific activity in data set [1] of 1.2.

Consider `CC1NC(=O)NC1=O` (centres unmarked) [5-methyl hydantoin], for which the “Specific activity” value in data set [2] was determined as 10.6 IU/mg.

For `O=CCCCC=O` [Glutaraldehyde, glutaraldehyde], the “Relative Activity” value in data set [3] worked out at 1.2.

For the molecule `[Ca+2]` [Ca (II)], the Specific activity in data set [1] is listed as 3.6.

In turn, `[Co+2]` [Co (II)] displayed a Specific activity in data set [1] of 3.6.

For `[Mg+2]` [Mg (II)], the Specific activity in data set [1] was determined as 5.2.

For p-hydroxymethyl hydantoin, the “Specific activity” value in data set [2] is given as 1.9 IU/mg.

`[Fe+3]` [Fe (III)] returned a Specific activity in data set [1] of 3.8.

Consider `[Ni+2]` [Ni (II)], for which, in data set [1], the Specific activity is reported as 3.6.

Take `O=C1CNC(=O)N1` [Hydantoin]: the “Specific activity” value in data set [2] is 7.5 IU/mg.

For `CC(C)=O` [Acetone, acetone], the “Relative Activity” value in data set [3] was found to be 2.8.

In the case of `O=C1NC(=O)C(c2ccc(O)cc2)N1` (racemic) [D,L-p-hydroxyphenyl hydantoin], the product formed in data set [4] (substrate 5 mg/ml, 2¾ hr) was 1.9 mg/mL; in data set [4] (substrate 5 mg/ml, 30 min), “.56 mg/mL”; in data set [4] (substrate 5 mg/ml, 60 min), 1.0 mg/mL; in data set [4] (substrate 5 mg/ml, 4 hr), 2.1 mg/mL; in data set [4] (substrate 5 mg/ml, 6 hr) it was 2.2 mg/mL; in data set [4] (substrate 10 mg/ml, 2¾ hr), 3.4 mg/mL. Moreover, the product formed result in data set [4] (substrate 10 mg/ml, 30 min) was “.75 mg/mL”; in data set [4] (substrate 10 mg/ml, 60 min), 1.4 mg/mL; in data set [4] (substrate 10 mg/ml, 4 hr) it was 4.0 mg/mL; in data set [4] (substrate 10 mg/ml, 6 hr), 4.4 mg/mL; in data set [4] (substrate 20 mg/ml, 2¾ hr) it was 4.0 mg/mL; in data set [4] (substrate 20 mg/ml, 30 min), “.82 mg/mL”. The product formed is 1.5 mg/mL in data set [4] (substrate 20 mg/ml, 60 min); 6.2 mg/mL in data set [4] (substrate 20 mg/ml, 4 hr); 7.7 mg/mL in data set [4] (substrate 20 mg/ml, 6 hr); 4.2 mg/mL in data set [4] (substrate 50 mg/ml, 2¾ hr); “.95 mg/mL” in data set [4] (substrate 50 mg/ml, 30 min); 1.6 mg/mL in data set [4] (substrate 50 mg/ml, 60 min). Besides, the product formed in data set [4] (substrate 50 mg/ml, 4 hr) turned out to be 6.3 mg/mL; in data set [4] (substrate 50 mg/ml, 6 hr), 9.2 mg/mL. In addition, the “% Conversion” value in data set [4] (substrate 5 mg/ml) turned out to be 40%; in data set [4] (substrate 10 mg/ml) it was 40%; in data set [4] (substrate 20 mg/ml) it was 35%; in data set [4] (substrate 50 mg/ml), 17%.

With `O=C1CNC(=S)N1` [2-thio hydantoin], the “Specific activity” value in data set [2] came to 4.3 IU/mg.

For the molecule `O=c1cc[nH]c(=O)[nH]1` [Uracil], the “Specific activity” value in data set [2] turned out to be 1.8 IU/mg.

B1: hydantoinase: D-hydantoinase from Ochrobactrum anthropi, SEQ ID NO: 2; in Table 3 assayed in glutaraldehyde treated cells (protein, listed as Ochrobactrum anthropi)
chain: MAKVIKGGTVITADRTFKADVLIEGEKIVAVGDNLSGDEVIDASGCYIMPGGIDPHTHLQMPFMGTYSSDDFDTGTAAALAGGTTMVVDFVLPGSEGNLLEALQEWFQKAGKARTDYSFHMAITGWNERTFNEMAEVVKRGINTFKHFMAYKGALMVNDDEMFASFQRCAELGAMPLVHAENGDIVAQLQAKLMAEGNDGPEAHAYSRPPEVEGEATNRAIMIADQAGVPLYVVHVSCEQSHEAIRRARQKGMRVFGEPLIQHLTLDESEYHNRDWDYAARRVMSPPFRDKANQDSLWAGLAAGSLQCVATDHCAFTTEQKRYGIGNFTKIPNGTGGLEERMPVLWSRGVRTGRLTPNEFVAVTSTNIAKILNIYPQKGAVLPGADADLVIWDPEATRKVSAKTQHSSIDYNVFEGFELKGLPKMTLSRGRVAFDKGNVTAEPGDGRFIEREPNGAVNRALSQWKEIVAPRKVERSAEHMPIGV
As for B1, the PI result in data set [5] is on record as “approximately 4.5”. Also, the Specific activity entry in data set [6] is listed as “greater than 4 IU per mg of protein”. For the same molecule, the “Relative Activities” value came out at 1.75 in data set [7] (held at pH 8.8 for about 4 hours), 1.17 in data set [7] (held at pH 9.3 for about 4 hours) and 0.62 in data set [7] (held at pH 9.8 for about 4 hours).
